Patent US20230151434A1, “REAWAKENING OF DORMANT TUMOR CELLS BY MODIFIED LIPIDS DERIVED FROM STRESS ACTIVATED NEUTROPHILS” (The Wistar Institute of Anatomy and Biology, priority 2020, published 2023)
Entries after “also recorded” stand apart in the source; their conditions may differ.

Experiments:
LL2^cisA cells = assay: In vivo stress induction, C57BL/6 mice injected with LL2^cisA cells; design: species or system mouse
Text: A total of 2.5×10^4 KPr^p53A cells were intravenously injected to NOD/SCID mice. Beginning 3 weeks after injection, mice were imaged weekly. Luciferin (PerkinElmer) was intraperitoneally injected in mice before imaging according to the manufacturer's instruction. Mice were imaged with IVIS Spectrum In Vivo Imaging System (IVIS, PerkinElmer) to detect luminescent signal coming from growing cancer cells. Mice were put under anesthesia in the induction chamber with isoflurane vaporizer set to 2.5%, at a flow rate of ˜1.5 liters/min. Mice were then transferred in the IVIS imaging stage nose cone inside the IVIS manifold (IVIS manifold nose cones flow set to ˜0.25 LPM). Animals were monitored by video during imaging. Once the images of luciferase/luciferin activity were acquired, the anesthesia was turned off and the animals were returned to their cages. […] Analysis and quantification were performed with IVIS imaging system Living Image Software 4.7.4 (PerkinElmer). […] When signal was detected, mice were sacrificed, and bioluminescent images of the harvested lung were taken. […] If no bioluminescence was detected in lungs after 80 days from last PMN injection, experiments were terminated, and lung tissue were collected. […] Bioluminescence was not detected in any LL2^CisA-injected mice at 3 weeks after injection. Mice were treated with PMN or PMN-MDSC and analyzed as described above. […]

[1] = tested on: patients with prostate cancer; settings: cited from earlier work
[2] = tested on: LL2^cisA and AT-3^DoxA cells; assay: In vitro co-culture of chemotherapy-arrested mouse tumor cells with PMN; format: cell-based; settings: LLC^cisA
Method: (§1) The KPr cell line (16) was maintained in RPMI 1640 medium (Corning) and 10% FBS (Gibco). Treatment of KPr cells with 250 nM 4-hydroxytamoxifen (4-OHT, Sigma-Aldrich) induced p53 expression. p53-induced cells (KPr^p53) were stained with CellTrace dye for 20 min at 37° C. according to the manufacturer's instructions (Life Technologies) and seeded at 8500 cells/cm^2 in culture in a T175 tissue culture-treated flask (Gibco). After 7 days, cells were detached and sorted based on the CellTrace dye intensity as proliferating (KPr^p53P, with lower CellTrace) and arrested cells (KPr^p53A, with higher-intensity CellTrace; see FIG. 1A for representative image). LL2 cells were seeded at 1000 cells/cm2 and treated for 3 days with 2.5 μM cisplatin (Selleckchem). After that, cells were stained with CellTrace and sorted as described above. OVCAR3 cell senescence was induced by treating 5×10^4 cells/cm2 with 0.5 μM cisplatin for 72 hours. After that time, cells were stained with CellTrace and sorted. A549 senescence was induced by 72-hour treatment with 4 μM cisplatin and cells were sorted after staining with CellTrace. Time points for sorting were chosen as the best to observe separation between arrested and proliferating cells. Cells were sorted on Astrios (Beckman Coulter) or Melody (Becton Dickinson) fluorescence-activated cell sorters.
(§2) Arrested tumor cells were plated at 100 cells/cm^2 in a 48-well tissue culture-treated plate (Costar) for coculture experiments. After 24 hours, PMN-MDSC or PMN were added at indicated ratios. Cocultures were maintained for 48 hours in RPMI 1640+10% FBS in the presence of mouse recombinant GM-CSF (10 ng/ml; Rocky Hill) to ensure neutrophil viability. All control conditions were in the presence of media with GM-CSF. All indicated supplements (NE, S100A8/A9, BGJ398, ICI 118-551, IL-2, MPO inhibitor, LPS, lipids, PMA, and thapsigargin 1 μM) were added to culture at the same time as PMN and maintained for 48 hours. After that, media were removed and replaced by fresh media without GM-CSF. After 1 week, GFP^+ cells in wells were counted via an inverted microscope. When lipid extracts were used, lipids were added to dormant cells in culture at 1 to 0.05 or 0.01 nmol as indicated in each experiment.

[3] = tested on: KPr, KPr^p53P and KPr^p53A^react cells; assay: Cell proliferation (luciferase activity); format: cell-based, mouse; settings: 5 or 10 μM
Method: Two thousand cells per well were seeded in 96-well clear bottom plate in triplicate (Lonza). Sixteen hours after seeding, NE (Sigma-Aldrich) at 0.5 to 5 μM final concentration or BGJ398 at 0.75 μM final concentration (Selleckchem) was added to culture. To test the effect of BGJ398t on KPr^p53A^React cells, escalating doses ranging from 0 to 10 μM final concentrations were used. To detect luciferase activity (proportional to number of cells in culture), Luciferin (PerkinElmer) was added 1:200 from stock according to the manufacturer's instructions and luminescence was measured with a Victor spectrophotometer (PerkinElmer).

KPr^p53A cells = assay: In vitro co-culture of dormant tumor cells with PMN (count of GFP+ cells); format: cell-based, mouse; settings: KPr^p53A
Method: as §1, §2

[4] = tested on: A549^cisA and OVCAR3^cisA cells; assay: In vitro co-culture of chemotherapy-arrested human tumor cells with human PMN; format: cell-based
Method: as §1, §2

SMILES	frequency of tumor lesions in stressed LL2^cisA cell-bearing mice (LL2^cisA cells; 0.15 mg/ml in drinking water during stress induction)	progression-free survival ([1]; patients with prostate cancer, compared to placebo)	disease-free survival ([1]; randomized phase III trial)	overall survival ([1]; randomized phase III trial)	reactivation of LLC^cisA cells by PMN treated with S100A8/A9 or NE, effect of FGFR blockade [2]	mice with lung tumor lesions despite exposure to stress (LL2^cisA cells; 30 mg/kg, 3 weeks of stress)	proliferation of KPr^p53A^react cells [3]	proliferation of KPr^p53P cells [3]	proliferation of parental KPr cells [3]	reactivation of KPr^p53A cells by PMN treated with S100A8/A9 or NE, effect of FGFR blockade (KPr^p53A cells)	reactivation of A549^cisA cells by PMN treated with S100A8/A9 or NE, effect of FGFR blockade ([4]; A549^cisA)	reactivation of OVCAR3^cisA cells by PMN treated with S100A8/A9 or NE, effect of FGFR blockade ([4]; OVCAR3^cisA)
COc1cccc2c1c(O)c(C(=O)N(C)c1ccc(C(F)(F)F)cc1)c(=O)n2C [tasquinimod]	significantly (P=0.007) reduced frequency of tumor lesions; also recorded: reverting the stress-induced reactivation of dormant tumor cells in mice	prolonged progression-free survival compared to placebo	increased disease-free survival	did not affect overall survival								
CCN1CCN(c2ccc(Nc3cc(N(C)C(=O)Nc4c(Cl)c(OC)cc(OC)c4Cl)ncn3)cc2)CC1 [BGJ398, infigratinib]					abrogated their reactivation by PMN treated with S100A8/A9 or NE	0 of 4	abrogated cell proliferation	did not affect proliferation of tumor cells	did not affect proliferation of tumor cells	abrogated their reactivation by PMN treated with S100A8/A9 or NE	abrogated their reactivation by PMN treated with S100A8/A9 or NE	abrogated their reactivation by PMN treated with S100A8/A9 or NE
